Key:
[1] = molecular target: SARS-CoV-2 spike protein RBD (RBD-Fc) binding to human ACE2 (ACE2-His-Avi) (Homo sapiens, UniProt Q9BYF1); assay: biochemical; design: species or system human ACE2 / SARS-CoV-2 spike
[2] = tested on: biotinylated rabbit IgG (Fc-protein A and streptavidin–biotin interactions); assay: Biotin-IgG counterassay; details: cherry-pick hit confirmation
ACE2 = details: at current writing; ref NCATS OpenData Portal; cited from earlier work
cytopathic effects (CPE) = details: at current writing; ref NCATS OpenData Portal; cited from earlier work
[3] = tested on: streptavidin donor beads / biotin-BSA acceptor beads; details: primary counterscreen
[4] = molecular target: RBD-Fc interaction with ACE2-His-Avi (Homo sapiens, UniProt Q9BYF1); assay type: binding, human ACE2 / SARS-CoV-2 spike
Sequence of RBD-Fc interaction with ACE2-His-Avi (Q9BYF1 18-740): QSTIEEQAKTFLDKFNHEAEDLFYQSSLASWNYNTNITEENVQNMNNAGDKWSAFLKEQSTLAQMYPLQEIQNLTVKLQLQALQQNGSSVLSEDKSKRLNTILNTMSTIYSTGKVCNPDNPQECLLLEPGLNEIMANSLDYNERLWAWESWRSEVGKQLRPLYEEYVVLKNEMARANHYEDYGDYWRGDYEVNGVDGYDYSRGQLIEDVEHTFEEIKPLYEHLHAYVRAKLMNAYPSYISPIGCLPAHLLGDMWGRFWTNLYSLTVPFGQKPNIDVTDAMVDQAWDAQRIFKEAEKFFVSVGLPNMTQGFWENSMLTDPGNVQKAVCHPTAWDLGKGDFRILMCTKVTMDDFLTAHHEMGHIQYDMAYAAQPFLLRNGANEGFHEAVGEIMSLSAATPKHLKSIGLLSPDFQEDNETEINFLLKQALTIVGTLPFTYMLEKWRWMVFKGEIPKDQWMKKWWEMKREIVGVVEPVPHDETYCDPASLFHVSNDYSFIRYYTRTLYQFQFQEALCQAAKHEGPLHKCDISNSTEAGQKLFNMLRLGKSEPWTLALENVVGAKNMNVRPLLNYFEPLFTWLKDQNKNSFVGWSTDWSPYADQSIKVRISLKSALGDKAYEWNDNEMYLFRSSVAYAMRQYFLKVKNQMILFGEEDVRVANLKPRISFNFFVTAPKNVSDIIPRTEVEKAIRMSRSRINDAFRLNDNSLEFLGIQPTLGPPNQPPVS

Sequence of SARS-CoV-2 spike protein RBD (RBD-Fc) binding to human ACE2 (ACE2-His-Avi) (Q9BYF1 18-740): as above

O=C(O[C@@H]1O[C@@H]2COC(=O)c3cc(O)c(O)c(O)c3-c3c(cc(O)c(O)c3O)C(=O)O[C@H]([C@H]1O)[C@@H]2O)c1cc(O)c(O)c(O)c1 [Corilagin]
IC50 [1]: 5.5 µM
activity in biotin-IgG counter assay [2]: not the biotin-IgG counter assay
activity in the ACE2 enzymatic assay (ACE2): weak activity
activity in blocking cytopathic effects (CPE) (cytopathic effects (CPE)): no activity

CC(C)(O/N=C(\C(=O)N[C@@H]1C(=O)N2C(C(=O)[O-])=C(C[n+]3ccccc3)CS[C@H]12)c1csc(N)n1)C(=O)O [ceftazidime]
ACE2–RBD binding inhibition in the primary AlphaLISA screen [1]: no significant activity
activity in the TruHits counterscreen [3]: no significant activity

CCOC(=O)[C@H](CCc1ccccc1)N[C@@H](C)C(=O)N1CCC[C@H]1C(=O)O [enalapril]
ACE2–RBD binding inhibition in the primary AlphaLISA screen [1]: none showed ACE2–RBD binding inhibition

NCCCC[C@H](N[C@@H](CCc1ccccc1)C(=O)O)C(=O)N1CCC[C@H]1C(=O)O [lisinopril]
ACE2–RBD binding inhibition in the primary AlphaLISA screen [1]: none showed ACE2–RBD binding inhibition

CCOC(=O)[C@H](CCc1ccccc1)N[C@@H](C)C(=O)N1Cc2cc(OC)c(OC)cc2C[C@H]1C(=O)O [moexipril]
ACE2–RBD binding inhibition in the primary AlphaLISA screen [1]: none showed ACE2–RBD binding inhibition

CCC(CC)COC(=O)[C@H](C)N[P@](=O)(OC[C@H]1O[C@@](C#N)(c2ccc3c(N)ncnn23)[C@H](O)[C@@H]1O)Oc1ccccc1 [remdesivir]
ACE2–RBD binding inhibition in the primary AlphaLISA screen [1]: no significant activity
activity in the TruHits counterscreen [3]: no significant activity

ACE2-His
competition for ACE2–RBD binding, AlphaLISA signal [4]: dose-dependent signal loss

— publication PMC7688046 (ACS Pharmacology & Translational Science, 2020)
